Here are results for 19 molecules from US20230142274A1 (SIMCERE PHARMACEUTICAL CO., LTD., priority 2020, published 2023).

The test system of experiment [1] is WI-38 cells. Kind of experiment: Inhibition of human WI-38 embryonic lung cell proliferation (Cell-Titer Glo). Format: cell-based. The settings on record: Homo sapiens, 72 h, 3 days incubation, read-out: Anti-Proliferative Activity Against WI-38 cells IC50. The procedure:
Introduction of the experimental principle: After the RAD51 inhibitor to be tested was co-incubated with human embryonic lung cells for a period of time, the influence of the test compound on cell proliferation was measured by a method for counting cell proliferation based on the quantitative measurement of intracellular ATP content.
Materials and Cells: WI-38 cells were purchased from ATCC; fetal bovine serum, 1640 medium and penicillin-streptomycin were purchased from Gibco Inc. (U.S.), 96-well plates were purchased from Corning Inc. (U.S.), and Cell-Titer Glo reagent was purchased from Promega Corporation (U.S.).
Cell culture: WI-38 cells were cultured in an EMEM culture medium containing 10% fetal bovine serum and 1% penicillin-streptomycin at 37° C. in an atmosphere containing 5% CO2. Cells in logarithmic growth phase could be used for experiments.
(§1) Assay of cell proliferation and viability: Cell-Titer Glo reagent was used to measure the inhibitory activities of the compounds on the proliferation of WI-38 cell strain. The concentration of cells was adjusted, and the cells were seeded in a 96-well plate and cultured at 37° C. in an atmosphere containing 5% CO2 for 24 hours. The powder of the compound was dissolved in 100% DMSO to form a 10 mM solution. 10 μl of the solution of the compound was aspirated and transferred into a 96-well compound plate containing 20 μl of DMSO solution in each well for 3-fold dilution and was then formulated to 10 serial dilutions. Thereafter, 2 μl of the solution of the compound was aspirated from the corresponding well and added correspondingly into a 96-well intermediate compound dilution plate containing 78 μl of complete culture medium in each well. The resultant was mixed well, and the plate was centrifuged at 1000 rpm for 1 minute. Finally, 10 μl of the solution of the compound was aspirated from the corresponding well of the 96-well intermediate compound dilution plate, and transferred into the corresponding well of the cell culture plate containing 90 μl of complete culture medium. The final concentration of DMSO was 0.25%. After the addition of the compound, the cells were continued to be incubated for 3 days at 37° C. in an atmosphere containing 5% CO2. Cell-Titer Glo reagent was added to measure cell viability.
% Compound inhibition was calculated and IC50 of the compound was fitted;
(§2) % Compound inhibition=1−100%×(Signal−Bottom)/(Top−Bottom)

The test system of experiment [2] is Daudi cells. Description: Inhibition of human Daudi lymphoma cell proliferation (Cell-Titer Glo). Format: cell-based. The note with it: Homo sapiens, 72 h, 3 days incubation, read-out: Anti-Proliferative Activity Against Daudi cells IC50. On the procedure:
Introduction of the experimental principle: After the RAD51 inhibitor to be tested was co-incubated with cancer cells for a period of time, the influence of the test compound on cell proliferation was measured by a method for counting cell proliferation based on the quantitative measurement of intracellular ATP content.
Materials and Cells: Daudi cells were purchased from ATCC; fetal bovine serum, 1640 medium and penicillin-streptomycin were purchased from Gibco Inc. (U.S.), 96-well plates were purchased from Corning Inc. (U.S.), and Cell-Titer Glo reagent was purchased from Promega Corporation (U.S.).
Cell culture: Daudi cells were cultured in 1640 culture medium containing 10% fetal bovine serum and 1% penicillin-streptomycin at 37° C. in an atmosphere containing 5% CO2. Cells in logarithmic growth phase could be used for experiments.
as §1, with “of Daudi” for “of WI-38”, “solution” for “solution in each well”, “formulated into” for “formulated to”
% Compound inhibition was calculated and IC50 of the compound was filled;
as §2

With `CC(C)OC(=O)Nc1ccc(-c2cnc([C@H]3CC[C@H](NC(=O)OC(C)C)CC3)s2)c(S(=O)(=O)C(C)(C)C)c1` [Example 34, isopropyl trans-N-[3-tert-butylsulfonyl-4-[2-[4-(isopropoxycarbonylamino)cyclohexyl]thiazol-5-yl]phenyl]carbamate], the half-inhibitory concentration (IC50) (usually the concentration that gives 50% inhibition) was greater than 25000 nM in experiment [1] and 700 nM in experiment [2].
Taken in the same sequence, the figures for `Cc1cc(Nc2ccc(-c3cnc([C@H]4CC[C@H](NC(=O)OC(C)C)CC4)s3)c(S(=O)(=O)C3COC3)c2)n(C)n1` [Example 117, isopropyl trans-(4-(5-(4-((1,3-dimethyl-1H-pyrazol-5-yl)amino)-2-(oxetan-3-ylsulfonyl)phenyl)thiazol-2-yl)cyclohexyl)carbamate] were 20000 nM and 7 nM.
As for `CC(C)OC(=O)N[C@H]1CC[C@H](c2ncc(-c3ccc(Nc4cn(C)nn4)cc3S(=O)(=O)C(C)C)s2)CC1` [Example 39, isopropyl trans-(4-(5-(2-(isopropylsulfonyl)-4-((1-methyl-1H-1,2,3-triazol-4-yl)amino)phenyl)thiazol-2-yl)cyclohexyl)carbamate], the figures for the half-maximal inhibitory concentration (IC50) in experiment [1] and in experiment [2] were greater than 25000 nM and 230 nM, respectively.
As to `CC(C)OC(=O)N[C@H]1CC[C@H](c2ncc(-c3ccc(NC(=O)NCc4ccccc4)cc3P(C)(C)=O)s2)CC1` [Example 26, isopropyl trans-(4-(5-(4-(3-benzylureido)-2-(dimethylphosphoryl)phenyl)thiazol-2-yl)cyclohexyl)carbamate], the IC50 is greater than 25000 nM in experiment [1] and 130 nM in experiment [2].
For the molecule `CC(C)OC(=O)N[C@H]1CC[C@H](c2ncc(-c3ccc(NC(=O)C4CC4c4ccccc4)cc3S(=O)(=O)NC(C)(C)C)s2)CC1` (stereo partly drawn) [Example 18, isopropyl trans-N-[4-[5-[2-(tert-butylsulfamoyl)-4-[(2-phenylcyclopropanecarbonyl)amino]phenyl]thiazol-2-yl]cyclohexyl]carbamate], the 50% inhibitory concentration (IC50) was greater than 25000 nM in experiment [1] and 90 nM in experiment [2].
As for `CC(C)OC(=O)N[C@H]1CC[C@H](c2ncc(-c3ccc(Nc4ccno4)cc3S(=O)(=O)NC(C)(C)C)s2)CC1` [Example 29, isopropyl trans-(4-(5-(2-(N-(tert-butyl)sulfamoyl)-4-(isoxazol-5-ylamino)phenyl)thiazol-2-yl)cyclohexyl)carbamate], the half-inhibitory concentration (IC50) in experiment [1] is 18400 nM; in experiment [2], 340 nM.
Consider `CC(C)OC(=O)N[C@H]1CC[C@H](c2ncc(-c3ccc(Nc4cc(C5CC5)[nH]n4)cc3S(=O)(=O)C3CC3)s2)CC1` [Example 62, isopropyl trans-N-[4-[5-[4-[(5-cyclopropyl-1H-pyrazol-3-yl)amino]-2-cyclopropylsulfonyl-phenyl]thiazol-2-yl]cyclohexyl]carbamate], for which the IC50 in experiment [1] is greater than 25000 nM; in experiment [2] it was 10 nM.
Taken in the same sequence, the figures for `Cc1cc(Nc2ccc(-c3cnc([C@H]4CC[C@H](NC(=O)OC(C)C)CC4)s3)c(S(=O)(=O)C(C)C)c2)n[nH]1` [Example 40, isopropyl trans-(4-(5-(2-(isopropylsulfonyl)-4-((5-methyl-1H-pyrazol-3-yl)amino)phenyl)thiazol-2-yl)cyclohexyl)carbamate] were 22900 nM and 51 nM.
As to `Cc1cc(Nc2ccc(-c3cnc([C@H]4CC[C@H](NC(=O)OC(C)C)CC4)s3)c(S(=O)(=O)C(C)C)c2)no1` [Example 37, isopropyl trans-(4-(5-(2-(isopropylsulfonyl)-4-((5-methylisoxazol-3-yl)amino)phenyl)thiazol-2-yl)cyclohexyl)carbamate], the IC50 is greater than 25000 nM in experiment [1] and 330 nM in experiment [2].
The like results for `CC(C)OC(=O)N[C@H]1CC[C@H](c2ncc(-c3ccc(NC(=O)OCC4CC4)cc3S(=O)(=O)NC(C)(C)C)s2)CC1` [Example 16, isopropyl trans-N-[4-[5-[2-(tert-butylsulfamoyl)-4-(cyclopropylmethoxycarbonylamino)phenyl]thiazol-2-yl]cyclohexyl]carbamate] were, in that order, greater than 25000 nM and 490 nM.
Taken in the same sequence, the figures for `CC(C)OC(=O)N[C@H]1CC[C@H](c2ncc(-c3ccc(NC(=O)NC4(c5ccccc5)CC4)cc3S(=O)(=O)NC(C)(C)C)s2)CC1` [Example 17, isopropyl trans-N-[4-[5-[2-(tert-butylsulfamoyl)-4-[(1-phenylcyclopropyl)carbamoylamino]phenyl]thiazol-2-yl]cyclohexyl]carbamate] were greater than 25000 nM and 110 nM.
`Cc1cc(Nc2ccc(-c3cnc([C@H]4CC[C@H](NC(=O)OC(C)C)CC4)s3)c(S(=O)(=O)C(C)C)c2)nn1C` [Example 36, isopropyl trans-(4-(5-(4-((1,5-dimethyl-1H-pyrazol-3-yl)amino)-2-(isopropylsulfonyl)phenyl)thiazol-2-yl)cyclohexyl)carbamate]: the half-inhibitory concentration (IC50) in experiment [1] amounted to 24600 nM; in experiment [2], 77 nM.
Consider `CC(C)OC(=O)Nc1ccc(-c2cnc(C3CC4CCC(C3)C4NC(=O)OC(C)C)s2)c(S(=O)(=O)NC(C)(C)C)c1` (stereo not drawn) [Example 21, isopropyl N-[3-(tert-butylsulfamoyl)-4-[2-[8-(isopropoxycarbonylamino)-3-bicyclo[3.2.1]octyl]thiazol-5-yl]phenyl]carbamate], for which the IC50 is greater than 25000 nM in experiment [1] and 440 nM in experiment [2].
Taken in the same sequence, the figures for `CC(C)OC(=O)Nc1ccc(-c2nnc([C@H]3CC[C@H](NC(=O)OC(C)C)CC3)s2)c(S(=O)(=O)C(C)C)c1` [Example 25, isopropyl trans-N-[4-[5-[4-(isopropoxycarbonylamino)cyclohexyl]-1,3,4-thiadiazol-2-yl]-3-isopropylsulfonyl-phenyl]carbamate] were greater than 25000 nM and 740 nM.
In the case of `CC(C)OC(=O)NC1CCC(c2ncc(-c3ccc(Nc4ccc(F)cn4)cc3S(=O)(=O)C3CC3)s2)CC1` (stereo not drawn) [Example 75, isopropyl trans-N-[4-[5-[2-cyclopropylsulfonyl]-4-[(5-fluoro-2-pyridyl)amino]phenyl]thiazol-2-yl]cyclohexyl]carbamate], in experiment [2], the IC50 amounted to 22 nM.
Same read-out and setting: the value for `Cc1cc(Nc2ccc(-c3cnc(C45CCC(NC(=O)OC(C)C)(CC4)CC5)s3)c(S(=O)(=O)C3CC3)c2)n[nH]1` [Example 60] was 4 nM; that for `Cc1cc(Nc2ccc(-c3cnc([C@H]4CC[C@H](NC(=O)OC(C)C)CC4)s3)c(S(=O)(=O)C(C)C)c2)sn1` [Example 38] was 150 nM; that for `CC(=O)Nc1ccc(-c2cnc([C@H]3CC[C@H](NC(=O)OC(C)C)CC3)s2)c(S(=N)(=O)C2CC2)c1` (stereo partly drawn) [Example 67, isopropyl trans-(4-(5-(4-acetylamino-2-(cyclopropanesulfonimidoyl)phenyl]thiazol-2-yl)cyclohexyl)carbamate] was 2600 nM.
In the case of `CN=S(=O)(c1cc(NC(=O)OC(C)C)ccc1-c1cnc(C2CCC(NC(=O)OC(C)C)CC2)s1)C(C)C` (stereo not drawn) [Example 20, isopropyl trans-N-[4-[2-[4-(isopropoxycarbonylamino)cyclohexyl]thiazol-5-yl]-3-(isopropyl-N-methyl-sulfonimidoyl)phenyl]carbamate], in experiment [2], the IC50 came to 2750 nM.
